Results on 37 compounds are retold here after patent US20050197350A1, “Novel quinoline, tetrahydroquinazoline, and pyrimidine derivatives and methods of treatment related to the use thereof” (TAISHO PHARMACEUTICAL CO., LTD., priority 2003, published 2005).

For one assay, the system named is MCH receptors. Briefly: MCH receptor activity class (method not given). Particulars: MCH receptor activity class 1-3 (percent of control at 10^-7 M or IC50).
As for `Cc1c(NC(=O)NC[C@H]2CC[C@@H](Nc3nccc(N(C)C)n3)CC2)cccc1[N+](=O)[O-]` [compound 2427, N-[(cis-4-{[4-(dimethylamino)pyrimidin-2-yl]amino}cyclohexyl)methyl]-N′-(2-methyl-3-nitrophenyl)urea], the class is given as 1 (Class 1: The value of percent of control at 10^−7 M was less than 40% or the value of IC50 was less than 50 nM.).

Still in this assay, the particulars now being: MCH receptor; class by percent of control at 10^-7 M or IC50.
Turning to `CN(C)c1cc(N[C@H]2CC[C@@H](NC(=O)/C=C/c3ccccc3)CC2)nc2ccccc12` [compound 26], the class is 3 (Class 3 The value of percent of control at 10^−7 M was more than 60% or the value of IC50 was more than 200 nM.).

For the compound `CN(C)c1cc(N[C@H]2CC[C@@H](CNC(=O)c3cccc([N+](=O)[O-])c3)CC2)nc2ccccc12` [compound 171, N-[(cis-4-{[4-(dimethylamino)quinolin-2-yl]amino}cyclohexyl)methyl]-3-nitrobenzamide], the class is 3 (Class 3 The value of percent of control at 10^−7 M was more than 60% or the value of IC50 was more than 200 nM.).

Consider `CN(C)c1nc(N[C@H]2CC[C@@H](NC(=S)Nc3cccc(C(F)(F)F)c3)CC2)nc2c1CCCC2` [compound 1957], for which the class was 3 (Class 3 The value of percent of control at 10^−7 M was more than 60% or the value of IC50 was more than 200 nM.).

Regarding `C=C(C)CNC(=S)N[C@H]1CC[C@@H](Nc2nc3c(c(N(C)C)n2)CCCC3)CC1` [compound 1950], the class is recorded as 3 (Class 3 The value of percent of control at 10^−7 M was more than 60% or the value of IC50 was more than 200 nM.).

In the case of `CN(C)c1cc(N[C@H]2CC[C@@H](NC(=O)c3ccc4ccccc4c3)CC2)nc2ccccc12` [compound 110], the class was 3 (Class 3 The value of percent of control at 10^−7 M was more than 60% or the value of IC50 was more than 200 nM.).

For `CN(C)c1nc(N[C@H]2CC[C@@H](NC(=S)NCCc3ccccc3)CC2)nc2c1CCCC2` [compound 1965], the class is 3 (Class 3 The value of percent of control at 10^−7 M was more than 60% or the value of IC50 was more than 200 nM.).

Still in this assay, the particulars now being: activity class 1-3: percent of control at 10^-7 M or IC50.
On to `Cc1ccc(CNC[C@H]2CC[C@@H](Nc3nccc(N(C)C)n3)CC2)cc1I` [compound 1537], for which the class was 3 (Class 3 The value of percent of control at 10^−7 M was more than 60% or the value of IC50 was more than 200 nM.).

Still in this assay, the particulars now being: activity class per percent of control at 10^-7 M or IC50.
In the case of `CN(C)c1nc(N[C@H]2CC[C@@H](CNC(=O)c3ccc(-c4ccc(Cl)cc4[N+](=O)[O-])o3)CC2)nc2c1CCCC2` [compound 1064], the class was 3 (Class 3 The value of percent of control at 10^−7 M was more than 60% or the value of IC50 was more than 200 nM.).

`CN(C)c1nc(N[C@H]2CC[C@@H](NC(=O)CCCc3cccs3)CC2)nc2c1CCCC2` [compound 1022]: the class is reported as 3 (Class 3 The value of percent of control at 10^−7 M was more than 60% or the value of IC50 was more than 200 nM.).

For the compound `Cc1ccc(-c2ccc(C(=O)NC[C@H]3CC[C@@H](Nc4nc5c(c(N(C)C)n4)CCCC5)CC3)o2)c([N+](=O)[O-])c1` [compound 1074], the class was 3 (Class 3 The value of percent of control at 10^−7 M was more than 60% or the value of IC50 was more than 200 nM.).

Staying with this assay, now noted: class 1-3 by percent of control at 10^-7 M or IC50.
Turning to `CN(C)c1nc(N[C@H]2CC[C@@H](NC(=O)c3ccc(F)cc3Cl)CC2)nc2c1CCCC2` [compound 497], the class was 2 (Class 2: The value of percent of control at 10^−7 M was from 40% to 60% or the value of IC′50 was from 50 nM to 200 nM.).

Staying with this assay, now noted: class by percent of control at 10^-7 M or IC50.
Turning to `CN(C)c1cc(N[C@H]2CC[C@@H](NC(=O)c3ccccc3COc3ccccc3)CC2)nc2ccccc12` [compound 760], the class was 3 (Class 3 The value of percent of control at 10^−7 M was more than 60% or the value of IC50 was more than 200 nM.).

In the case of `CN(C)c1nc(N[C@H]2CC[C@@H](CNC(=O)c3ccccc3Br)CC2)nc2c1CCCC2` [compound 655], the class is listed as 3 (Class 3 The value of percent of control at 10^−7 M was more than 60% or the value of IC50 was more than 200 nM.).

For `Cc1ccc(Cl)c(C(=O)NC[C@H]2CC[C@@H](Nc3nc4c(c(N(C)C)n3)CCCC4)CC2)c1F` [compound 670], the class is on record as 3 (Class 3 The value of percent of control at 10^−7 M was more than 60% or the value of IC50 was more than 200 nM.).

As to `Cc1cc(C(=O)NC[C@H]2CC[C@@H](Nc3nc4c(c(N(C)C)n3)CCCC4)CC2)ccc1F` [compound 643], the class is 2 (Class 2: The value of percent of control at 10^−7 M was from 40% to 60% or the value of IC′50 was from 50 nM to 200 nM.).

`CN(C)c1ccnc(N[C@H]2CC[C@@H](NCc3cccc4ccccc34)CC2)n1` [compound 1240]: the class is listed as 3 (Class 3 The value of percent of control at 10^−7 M was more than 60% or the value of IC50 was more than 200 nM.).

Regarding `CN(C)c1ccnc(N[C@H]2CC[C@@H](NC(=O)Cc3ccccc3)CC2)n1` [compound 263], the class is 3 (Class 3 The value of percent of control at 10^−7 M was more than 60% or the value of IC50 was more than 200 nM.).

Consider `CN(C)c1nc(N[C@H]2CC[C@@H](CNC(=O)c3c(Cl)cc(Cl)cc3Cl)CC2)nc2c1CCCC2` [compound 668, 2,4,6-trichloro-N-[(cis-4-{[4-(dimethylamino)-5,6,7,8-tetrahydroquinazolin-2-yl]amino}cyclohexyl)methyl]benzamide], for which the class was 1 (Class 1: The value of percent of control at 10^−7 M was less than 40% or the value of IC50 was less than 50 nM.).

For `CN(C)c1nc(N[C@H]2CC[C@@H](NC(=O)c3ccc(Cl)s3)CC2)nc2c1CCCC2` [compound 953], the class is listed as 1 (Class 1: The value of percent of control at 10^−7 M was less than 40% or the value of IC50 was less than 50 nM.).

In the case of `CN(C)c1nc(N[C@H]2CC[C@@H](CNC(=O)c3ccc(C#N)cc3)CC2)nc2c1CCCC2` [compound 639], the class was 3 (Class 3 The value of percent of control at 10^−7 M was more than 60% or the value of IC50 was more than 200 nM.).

For `CN(C)c1cc(N[C@H]2CC[C@@H](CNCCCCCCc3ccccc3)CC2)nc2ccccc12` [compound 1465], the class is 3 (Class 3 The value of percent of control at 10^−7 M was more than 60% or the value of IC50 was more than 200 nM.).

For `CN(C)c1ccnc(N[C@H]2CC[C@@H](CNCc3cc(C(F)(F)F)ccc3F)CC2)n1` [compound 1274], the class was 3 (Class 3 The value of percent of control at 10^−7 M was more than 60% or the value of IC50 was more than 200 nM.).

On to `CCOc1ccc(OCC)c(CNC[C@H]2CC[C@@H](Nc3cc(N(C)C)c4ccccc4n3)CC2)c1` [compound 1169], for which the class is reported as 2 (Class 2: The value of percent of control at 10^−7 M was from 40% to 60% or the value of IC′50 was from 50 nM to 200 nM.).

For the compound `CN(C)c1ccnc(N[C@H]2CC[C@@H](NC(=O)c3ccc(-c4ccc(Cl)cc4)o3)CC2)n1` [compound 836], the class is 1 (Class 1: The value of percent of control at 10^−7 M was less than 40% or the value of IC50 was less than 50 nM.).

With `CN(C)c1ccnc(N[C@H]2CC[C@@H](CNC(=O)c3ccc4c(c3)OCO4)CC2)n1` [compound 392], the class was 3 (Class 3 The value of percent of control at 10^−7 M was more than 60% or the value of IC50 was more than 200 nM.).

Turning to `CN(C)c1ccnc(N[C@H]2CC[C@@H](CNC(=O)c3ccc(Cl)c(Cl)c3)CC2)n1` [compound 376], the class was 2 (Class 2: The value of percent of control at 10^−7 M was from 40% to 60% or the value of IC′50 was from 50 nM to 200 nM.).

With `CN(C)c1cc(N[C@H]2CC[C@@H](NC(=O)Nc3ccc4c(c3)OCCO4)CC2)nc2ccccc12` [compound 2161], the class is 3 (Class 3 The value of percent of control at 10^−7 M was more than 60% or the value of IC50 was more than 200 nM.).

In the case of `CN(C)c1cc(N[C@H]2CC[C@@H](CNC(=O)c3ccc(I)o3)CC2)nc2ccccc12` [compound 795, N-[(cis-4-{[4-(dimethylamino)quinolin-2-yl]amino}cyclohexyl)methyl]-5-iodo-2-furamide], the class is on record as 3 (Class 3 The value of percent of control at 10^−7 M was more than 60% or the value of IC50 was more than 200 nM.).

For the compound `Cc1cc(NC(=O)N[C@H]2CC[C@@H](Nc3nc4c(c(N(C)C)n3)CCCC4)CC2)c([N+](=O)[O-])cc1C` [compound 1880], the class is reported as 3 (Class 3 The value of percent of control at 10^−7 M was more than 60% or the value of IC50 was more than 200 nM.).

As for `CN(C)c1cc(N[C@H]2CC[C@@H](NC(=O)Nc3ccc(Cl)cc3C(F)(F)F)CC2)nc2ccccc12` [compound 2117], the class was 3 (Class 3 The value of percent of control at 10^−7 M was more than 60% or the value of IC50 was more than 200 nM.).

For `CCc1ccc(CNC[C@H]2CC[C@@H](Nc3nccc(N(C)C)n3)CC2)s1` [compound 1278], the class was 3 (Class 3 The value of percent of control at 10^−7 M was more than 60% or the value of IC50 was more than 200 nM.).

Turning to `CN(C)c1cc(N[C@H]2CC[C@@H](NC(=O)C3CCCC[C@H]3C(=O)c3ccccc3)CC2)nc2ccccc12` (stereo partly shown) [compound 693], the class is 3 (Class 3 The value of percent of control at 10^−7 M was more than 60% or the value of IC50 was more than 200 nM.).

With `CN(C)c1nc(N[C@H]2CC[C@@H](NC(=S)Nc3ccc(C#N)cc3)CC2)nc2c1CCCC2` [compound 1738], the class is 3 (Class 3 The value of percent of control at 10^−7 M was more than 60% or the value of IC50 was more than 200 nM.).

The assay is the same for the next values; noted with them: class by percent of control at 10^−7 M or IC50.
In the case of `Cc1cnc(N[C@H]2CC[C@@H](NC(=O)c3ccc(F)cc3F)CC2)nc1N(C)C` [compound 2901, N-(cis-4-{[4-(dimethylamino)-5-methylpyrimidin-2-yl]amino}cyclohexyl)-2,4-difluorobenzamide], the class is listed as 1 (Class 1: The value of percent of control at 10^−7 M was less than 40% or the value of IC50 was less than 50 nM.).

With `Cc1nc(N[C@H]2CC[C@@H](NC(=O)c3ccc(C(F)(F)F)nc3)CC2)nc(N(C)C)c1C` [compound 2859], the class is recorded as 2 (Class 2: The value of percent of control at 10^−7 M was from 40% to 60% or the value of IC′50 was from 50 nM to 200 nM.).

As to `Cc1nc(N[C@H]2CC[C@@H](NCc3cccc(OC(F)(F)F)c3)CC2)nc(N(C)C)c1C` [compound 2865], the class is recorded as 3 (Class 3 The value of percent of control at 10^−7 M was more than 60% or the value of IC50 was more than 200 nM.).
